Data: PubChem BioAssay (NCI)
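Five concentrations, 48 hours, 96-well plates. The concentration for 50% growth inhibition is given as GI50. Definition used: TGI = concentration required for complete inhibition of growth.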

Legend:
Assay in all cases: NCI tumour cell line growth inhibition, 48 h
[1] = tested on: 786-0 renal
[2] = tested on: A549 NSCLC
[3] = tested on: ACHN renal
[4] = tested on: BT-549 breast
[5] = tested on: CAKI-1 renal
[6] = tested on: CCRF-CEM leukemia
[7] = tested on: COLO 205 colon
[8] = tested on: EKVX NSCLC
[9] = tested on: HCT-15 colon
[10] = tested on: HL-60(TB) leukemia
[11] = tested on: HOP-62 NSCLC
[12] = tested on: HOP-92 NSCLC
[13] = tested on: HS 578T breast
[14] = tested on: HT29 colon
[15] = tested on: IGROV1 ovarian
[16] = tested on: K-562 leukemia
[17] = tested on: KM12 colon
[18] = tested on: LOX IMVI melanoma
[19] = tested on: M14 melanoma
[20] = tested on: MALME-3M melanoma
[21] = tested on: MCF7 breast
[22] = tested on: MDA-MB-435
[23] = tested on: MOLT-4 leukemia
[24] = tested on: NCI-H226 lung
[25] = tested on: NCI-H23 lung
[26] = tested on: NCI-H460 lung
[27] = tested on: NCI-H522 lung
[28] = tested on: NCI/ADR-RES ovarian
[29] = tested on: OVCAR-3 ovarian
[30] = tested on: OVCAR-4 ovarian
[31] = tested on: OVCAR-5 ovarian
[32] = tested on: OVCAR-8 ovarian
[33] = tested on: PC-3 prostate
[34] = tested on: RPMI-8226 leukemia
[35] = tested on: SF-268 CNS
[36] = tested on: SF-295 CNS
[37] = tested on: SK-MEL-2 melanoma
[38] = tested on: SK-MEL-28 melanoma
[39] = tested on: SK-MEL-5 melanoma
[40] = tested on: SK-OV-3 ovarian
[41] = tested on: SN12C renal
[42] = tested on: SNB-19 CNS
[43] = tested on: SNB-75 CNS
[44] = tested on: SR leukemia
[45] = tested on: SW-620 colon
[46] = tested on: T-47D breast
[47] = tested on: TK-10 renal
[48] = tested on: U251 CNS
[49] = tested on: UACC-257 melanoma
[50] = tested on: UACC-62 melanoma
[51] = tested on: UO-31 renal
[52] = tested on: DU-145 prostate
[53] = tested on: HCC-2998 colon
[54] = tested on: HCT-116 colon
[55] = tested on: MDA-MB-231 breast
[56] = tested on: SF-539 CNS

CC12CCC(CC1(Cl)Cl)C2 (stereo not drawn)
TGI [1]: > 100 µM
TGI [2]: > 100 µM
TGI [3]: > 100 µM
TGI [4]: > 100 µM
TGI [5]: > 100 µM
TGI [6]: > 100 µM
TGI [7]: > 100 µM
TGI [8]: > 100 µM
TGI [9]: > 100 µM
TGI [10]: > 100 µM
TGI [11]: > 100 µM
TGI [12]: > 100 µM
TGI [13]: > 100 µM
TGI [14]: > 100 µM
TGI [15]: > 100 µM
TGI [16]: > 100 µM
TGI [17]: > 100 µM
TGI [18]: > 100 µM
TGI [19]: > 100 µM
TGI [20]: > 100 µM
TGI [21]: > 100 µM
TGI [22]: > 100 µM
TGI [23]: > 100 µM
TGI [24]: > 100 µM
TGI [25]: > 100 µM
TGI [26]: > 100 µM
TGI [27]: > 100 µM
TGI [28]: > 100 µM
TGI [29]: > 100 µM
TGI [30]: > 100 µM
TGI [31]: > 100 µM
TGI [32]: > 100 µM
TGI [33]: > 100 µM
TGI [34]: > 100 µM
TGI [35]: > 100 µM
TGI [36]: > 100 µM
TGI [37]: > 100 µM
TGI [38]: > 100 µM
TGI [39]: > 100 µM
TGI [40]: > 100 µM
TGI [41]: > 100 µM
TGI [42]: > 100 µM
TGI [43]: > 100 µM
TGI [44]: > 100 µM
TGI [45]: > 100 µM
TGI [46]: > 100 µM
TGI [47]: > 100 µM
TGI [48]: > 100 µM
TGI [49]: > 100 µM
TGI [50]: > 100 µM
TGI [51]: > 100 µM

CC(C)(C)c1nc(-c2cccc(NS(=O)(=O)c3c(F)cccc3F)c2F)c(-c2ccnc(N)n2)s1
GI50 [1]: 48.9 µM
TGI [1]: > 100 µM
GI50 [2]: 26.1 µM
TGI [2]: > 100 µM
GI50 [3]: 0.211 µM
TGI [3]: > 100 µM
GI50 [4]: 37.5 µM
TGI [4]: > 72.1 µM
GI50 [6]: 21.7 µM
TGI [6]: > 86.2 µM
GI50 [7]: < 0.01 µM
TGI [7]: > 100 µM
GI50 [52]: 58.5 µM
TGI [52]: > 100 µM
GI50 [53]: 24.1 µM
TGI [53]: 86.7 µM
GI50 [54]: 20.4 µM
TGI [54]: > 100 µM
GI50 [9]: 22.2 µM
TGI [9]: 81.1 µM
GI50 [10]: 4.68 µM
TGI [10]: 37.4 µM
GI50 [11]: 47.2 µM
TGI [11]: > 100 µM
GI50 [12]: 35.5 µM
TGI [12]: > 100 µM
GI50 [13]: 61.1 µM
TGI [13]: > 100 µM
GI50 [14]: < 0.01 µM
TGI [14]: > 100 µM
GI50 [15]: 56.1 µM
TGI [15]: > 100 µM
GI50 [16]: 25.6 µM
TGI [16]: > 100 µM
GI50 [17]: 23.8 µM
TGI [17]: > 92.4 µM
GI50 [18]: 0.233 µM
TGI [18]: > 100 µM
GI50 [21]: 27.3 µM
TGI [21]: > 100 µM
GI50 [55]: 7.19 µM
TGI [55]: > 69.9 µM
GI50 [22]: < 0.01 µM
TGI [22]: > 100 µM
GI50 [23]: 26.5 µM
TGI [23]: > 100 µM
GI50 [24]: 32.9 µM
TGI [24]: > 100 µM
GI50 [25]: 10.3 µM
TGI [25]: 98.6 µM
GI50 [26]: 30.4 µM
TGI [26]: > 100 µM
GI50 [27]: 19 µM
TGI [27]: 54.7 µM
GI50 [28]: 50.9 µM
TGI [28]: > 100 µM
GI50 [29]: 35.6 µM
TGI [29]: > 100 µM
GI50 [30]: 50.5 µM
TGI [30]: > 100 µM
GI50 [31]: 12.3 µM
TGI [31]: > 100 µM
GI50 [32]: 49.1 µM
TGI [32]: > 100 µM
GI50 [33]: 41.3 µM
TGI [33]: > 100 µM
GI50 [34]: 24.1 µM
TGI [34]: 97 µM
GI50 [35]: 51 µM
TGI [35]: > 100 µM
GI50 [36]: 55.6 µM
TGI [36]: > 100 µM
GI50 [56]: 39.2 µM
TGI [56]: > 100 µM
GI50 [38]: < 0.01 µM
TGI [38]: > 100 µM
GI50 [39]: 0.0129 µM
TGI [39]: > 100 µM
GI50 [41]: 17.7 µM
TGI [41]: > 100 µM
GI50 [42]: 71.5 µM
TGI [42]: > 100 µM
GI50 [45]: 23.9 µM
TGI [45]: > 100 µM
GI50 [46]: 25.9 µM
TGI [46]: 99 µM
GI50 [47]: 31.8 µM
TGI [47]: > 100 µM
GI50 [48]: 45.5 µM
TGI [48]: > 100 µM
GI50 [51]: 0.46 µM
TGI [51]: > 100 µM
